Experimental data: US20110046142A1, “ANTIBIOTIC COMPOUNDS” (priority 2007, published 2011)
In brackets after ≈: the same amount, converted by molar mass. Where two headings read alike, the source gives them in different places.

Experiments:
Assay type in all cases: cell-based
P. aeruginosa = assay: Killing of logarithmic, stationary and biofilm cultures, colony count
Description: Persister cells in planktonic and biofilm populations are characterized for their antibiotic sensitivity in this example. Several bactericidal antimicrobials were chosen to test the resistance of P. aeruginosa to killing—ofloxacin, a fluoroquinolone; tobramycin, an aminoglycoside; carbenicillin, a β-lactam; and peracetic acid, a disinfectant oxidant (Spoering et al. (2001) J. Bacteriol. 183:6746-6751). Biofilms were grown essentially by the method of Ceri (Ceri et al. (1999) J. Clin. Microbiol. 37:1771-1776) and as described in Brooun et al. (2000) Antimicrob. Agents Chemother. 44:640-646. The device used for biofilm formation is a platform carrying 96 polystyrene pegs that fit in a microtiter plate. Preformed biofilms were incubated in the presence of an antimicrobial agent, and survival was measured after disrupting the biofilms by colony count.
Logarithmic state, stationary and biofilm cultures were challenged with carbenicillin. Carbenicillin is a bactericidal antibiotic that, similarly to most β-lactams, only kills rapidly growing cells (Tuomanen et al. (1986) Scand. J. Gastroenterol. Suppl:10-14). […] The amount of killing of logarithmic cells approached a plateau at concentrations above 1.67×MIC, indicating the presence of a persister subpopulation. These 0.1% cells in the rapidly growing logarithmic culture were invulnerable to killing by carbenicillin at 600 μg/ml.
Unlike carbenicillin, ofloxacin can kill non-growing cells (Brooun et al. (2000) Antimicrob. Agents Chemother. 44:640-646). Logarithmic, stationary and biofilm cultures were challenged with ofloxacin over a wide range of concentrations, from 1×MIC (0.5 μg/ml) to 30×MIC (15 μg/ml). After a 6 hrs incubation time with the antibiotic, viability was determined by colony count. The majority of cells in the three populations examined were killed at low concentrations of ofloxacin (FIG. 3B). The killing in all three cultures was distinctly biphasic, indicating the presence of persister cells. The levels of persisters were dramatically higher in the dense stationary planktonic and biofilm cultures as compared to logarithmic cells. […] At 5 μg/ml ofloxacin, which is the clinically achievable concentration (Schulz et al. (1997) Pharmazie 52:895-911), the percentage of live cells was 0.001% in the logarithmic population, 0.1% in the biofilm and 2.5% in the stationary culture (FIG. 3B).
Tobramycin at 50 μg/ml (the maximal clinically achievable concentration is 10 μg/ml), (Schulz et al. (1997) Pharmazie 52:895-911) eliminated 90% of the biofilm cells, and the remaining population declined gradually with increasing amounts of the antibiotic. At high concentrations surviving persisters became apparent. Tobramycin was ineffective against stationary planktonic cells, apparently due to the dependence of killing of growth.
Peracetic acid, an oxidizing disinfectant, was used in order to test the ability of a sterilizing agent to act against persisters. […] Similar results showing biphasic killing, and high level of persisters in stationary and biofilm populations, also were obtained with S. aureus and E. coli (Keren et al. (2004) FEMS Microbiol. Lett. 230:13-18).

[1] = tested on: E. coli K12 overexpressing activating enzyme; assay: MIC, standard broth microdilution assay, overexpression strains
Description: (§1) The ASKA strains of interest are validated for functional expression of the enzyme. If the protein is not expressed from a given expression vector the ORF is recloned. A strain overexpressing the activating enzyme from the ASKA library is then tested with the hit compound. If the hit has greater activity against this overexpressing strain as compared to the wild type, this indicates a prodrug. The test is performed in a standard broth microdilution assay for MIC determination. Hits with the lowest wild type MIC are then examined.
(§2) Cells were tested in a standard broth microdilution assay, inoculating 10^5 cells per well of a microtiter plate in LB broth. Overexpression and deletion strains were compared to the appropriate isogenic wild type. IPTG was added at 1 mM to growth medium. Experiments involving nfnB and nfsA strains were performed under anaerobic conditions.

[2] = tested on: E. coli K12 Δactivating enzyme; assay: MIC, standard broth microdilution assay, deletion strains
Description: as §1, §2

[3] = tested on: E. coli K12 ΔtolC overexpressing activating enzyme; assay: MIC, standard broth microdilution assay, tolC deletion (MDR efflux)
From the text: Prodrugs are activated by activating enzymes into reactive molecules that bind to their targets, creating an irreversible sink. This may lead to insensitivity of the overall process to MDR efflux. In order to test this possibility, an E. coli K12 with a deletion in tolC coding for the outer membrane porin that is a component of the transenvelope MDRs was utilized (Li (2004) Drugs 64:159-204). This strain is highly sensitive to antibiotics (Tegos et al. (2002) Antimicrob. Agents Chemother. 46:3133-3141). […] The substrate specificity of AcrAB is remarkably broad, and includes essentially all small molecular weight amphipathic compounds. The AcrAB substrates include anions (SDS, fatty acids, bile acids), neutral compounds (macrolides, chloramphenicol, tetracyclines) and cations or compounds that can form cations (acridine, quaternary compound antiseptics, fluoroquinolones). AcrAB can extrude a natural broad spectrum antibiotics that evolved for good penetration, chloramphenicol and tetracycline; and also extrude synthetic broad-spectrums, the fluoroquinolones.
as §2

E. coli K12 wt = assay: MIC, standard broth microdilution assay; conditions: LB broth, 10^5 cells per well, 1 mM IPTG
Description: as §1, §2

wild type (WT) E. coli = assay: MIC, validation of screen hits
Description: (§3) To validate the screening, the activity of nitazole against strains with nitrate reductases deleted and in strains overexpressing nitrate reductases were tested. A prodrug activated by a nitrate reductase has lower activity against a strain lacking the enzyme, and a higher activity in an overexpression strain, as compared to a wild type. E. coli has two known […], NfnB and NfsA. Strains tested were wild type (WT) E. coli, two knockout strains lacking the 2 nitroreductases (NfnB−; NfsA−), and against two strains overexpressing the same enzymes (NfnB+ and NfsA+). MIC values for nitazole are shown below.

[4] = tested on: E. coli K12 knockout pool (BacPool) and wild type; assay: Prodrug screen, growth/no growth of BacPool knockout mix versus wild type; conditions: compounds at about 46-50 μg/ml, OD600 after overnight incubation
From the text: A complete, ordered E. coli K12 knockout library of 4320 genes and predicted ORFs (the Keio library) was used (Baba et al. (2006). Mol. Systems Biol. 2:2006.0008). The knockouts were constructed using the Wanner method with a kanamycin cassette replacing the ORFs (Datsenko et al. (2000) Proc. Natl. Acad. Sci. USA 97:6640-6645). All strains of this library were combined in a mix BacPool1) for screening. This permitted screening of the library against all strains simultaneously, instead of screening a full industry-size library against each of the individual E. coli 4×10^3 knockout strains.
The library mix was prepared by first culturing all strains overnight in LB medium, and then adding equal aliquots into a tube. This material was then mixed, dispensed in vials and stored at −80° C. For the screen, one vial was thawed, diluted to 10^5 cells/ml in LB, and dispensed into 384 well microtiter plates. The compounds were added from DMSO stocks at a final concentration of 46 μg/ml. The same compounds were added to plates containing the wild type isogenic control. Screening was performed at the Harvard NSRB/NERCE screening facility that host a collection of 150,000 compounds (see Tables 1A and 1B). All screens at NSRB/NERCE were performed in duplicate, which strongly decreases the rate of false positives and negatives. For each tested molecule there are three possible scenarios when scoring for growth/no growth:
Growth in both the BacPool and K12 wells: indicates lack of antimicrobial activity;
Growth inhibition in both the BacPool and K12 wells: a possible antibiotic (direct activity) or generally toxic compound is present, but is not a prodrug; or
Growth of a BacPool well and no growth of the K12 well: a prodrug hit.
After an overnight incubation of plates at 37° C., the plates were read at OD600. Compounds that had no effect on the growth of the mix and inhibited the growth of the wild type were recorded as hits. The wells with growth indicated a prodrug hit that is not converted into a drug by a particular deletion mutant in the mix. The mutant strain is then identified in a secondary screen (see Example 2).
Yet another screen was performed on 147,500 compounds, using the protocol described below. […]
An E. coli KanR culture was grown in LB broth containing 50 μg/ml Kanamycin for 20 hrs at 37° C. in a shaking incubator. […] The plates were then incubated for 20 hrs at 37° C., and then the plates were read for Optical Density at 600 nm and were scored for growth/no growth. […]
Hits were identified by calculating the % of inhibition of growth of E. coli measured by OD600. The data were analyzed as follows: negative controls (N), positive controls (P), and compounds (X) ODs were separately averaged and the resulting means were used to calculate % of inhibition of E. coli growth: […]

[5] = tested on: E. coli strains overexpressing NfnB+ and NfsA+; assay: MIC, validation of screen hits, overexpression strains
Description: as §3

[6] = tested on: E. coli knockout strains lacking the 2 nitroreductases (NfnB−; NfsA−); assay: MIC, validation of screen hits, knockout strains
Description: as §3

[7] = Escherichia coli, K12WT, read-out: MIC
[8] = nfnB^+ overexpressing strain, 1 mM IPTG, anaerobic conditions
[9] = nfsA^+ overexpressing strain, 1 mM IPTG, anaerobic conditions
[10] = nfnB^− deletion strain, anaerobic conditions
[11] = nfsA^− deletion strain, anaerobic conditions
[12] = ΔtolC, nfnB^+ overexpressing strain
[13] = ΔtolC, nfsA^+ overexpressing strain
[14] = Escherichia coli, read-out: MIC

CC1(C)S[C@@H]2[C@H](NC(=O)C(C(=O)O)c3ccccc3)C(=O)N2[C@H]1C(=O)O (stereo partly drawn) [carbenicillin]
killing of biofilm cells (P. aeruginosa; biofilm): resistant to killing | concentration at which the majority of logarithmic cells were killed (P. aeruginosa; logarithmic cells): 1.67 ×MIC | cells invulnerable to killing (persister subpopulation) (P. aeruginosa; rapidly growing logarithmic culture, 600 μg/ml): 0.1% | killing of stationary cells (P. aeruginosa; stationary planktonic cells): little killing

Nc1nc(F)nc2c1ncn2[C@@H]1O[C@H](CO)[C@@H](O)[C@@H]1O [Fludarabine]
MIC ([1]; Escherichia coli): 125 µg/mL (≈ 438 µM) | MIC ([2]; Escherichia coli, deoD^− deletion strain): > 500 µg/mL | MIC ([3]; Escherichia coli): 125 µg/mL (≈ 438 µM) | MIC (E. coli K12 wt; [7]): > 500 µg/mL

NC(=O)c1cc(N2CC2)c([N+](=O)[O-])cc1[N+](=O)[O-] [Dinitroaziridinylbenzamide (CB1954), Dinitroaziridinylbenzamide]
MIC [1, 8]: nfnB^+ 3.3 μg/ml | MIC [1, 9]: nfsA^+ 6.3 μg/ml | MIC [2, 10]: nfnB^− > 200 μg/ml | MIC [2, 11]: nfsA^− > 200 μg/ml | MIC [3, 12]: nfnB^+ 3.3 μg/ml | MIC [3, 13]: nfsA^+ 6.3 μg/ml | MIC (E. coli K12 wt): >200 µg/mL

benzoxazole, 2,3-dihydro-5-nitro-2-(5-nitro-2-thienyl)-(9CI)
MIC (wild type (WT) E. coli): 12.5 µg/mL | screen outcome (prodrug hit / direct activity) [4]: prodrug hit | MIC ([5]; NfnB+): 3.1 µg/mL | MIC ([5]; NfsA+): 6.3 µg/mL | MIC ([6]; NfnB−): 25 µg/mL | MIC ([6]; NfsA−): 25 µg/mL

CC(=O)Nc1ncc([N+](=O)[O-])s1 [nitazole, Acetamide, N-(5-nitro-2-thiazolyl)-(8CI,9CI)]
MIC (wild type (WT) E. coli; [14]): 12.5 µg/mL (≈ 66.8 µM) | screen outcome (prodrug hit / direct activity) [4]: prodrug hits | MIC ([5]; Escherichia coli, NfnB+): 1.6 µg/mL (≈ 8.55 µM) | MIC ([5]; Escherichia coli, NfsA+): 6.3 µg/mL (≈ 33.7 µM) | MIC ([6]; Escherichia coli): 25 µg/mL (≈ 134 µM) | MIC ([6]; NfsA−): 25 µg/mL (≈ 134 µM)

S=C(Nc1cccc(Cl)c1)Nc1cccc(Cl)c1 [PD18, thiourea, N,N′-bis(3-chlorophenyl)-(9CI)]
MIC (wild type (WT) E. coli; [14]): 25 µg/mL (≈ 84.1 µM) | screen outcome (prodrug hit / direct activity) [4]: prodrug hits

CC[C@H]1OC(=O)[C@H](C)[C@@H](O[C@H]2C[C@@](C)(OC)[C@@H](O)[C@H](C)O2)[C@H](C)[C@@H](O[C@@H]2O[C@H](C)C[C@H](N(C)C)[C@H]2O)[C@](C)(O)C[C@@H](C)C(=O)[C@H](C)[C@@H](O)[C@]1(C)O [Erythromycin]
MIC ([1]; Escherichia coli): 200 µg/mL (≈ 273 µM) | MIC ([1]; codA^+ overexpressing strain, 1 mM IPTG): codA^+ 200 μg/ml | MIC ([1]; deoD^+ overexpressing strain, 1 mM IPTG): deoD^+ 200 μg/ml | MIC [1, 9]: nfsA^+ 200 μg/ml | MIC ([3]; Escherichia coli): 1.56 µg/mL (≈ 2.13 µM) | MIC ([3]; ΔtolC, codA^+ overexpressing strain): codA^+ 1.56 μg/ml | MIC ([3]; ΔtolC, deoD^+ overexpressing strain): deoD^+ 1.56 μg/ml | MIC [3, 12]: nfnB^+ 1.56 μg/ml | MIC [3, 13]: nfsA^+ 1.56 μg/ml | MIC (E. coli K12 wt; [7]): 200 µg/mL (≈ 273 µM)

CC(=O)OO [Peracetic acid]
sterilization of cultures (P. aeruginosa; logarithmic, stationary and biofilm cultures): all cultures were sterilized

NC(=O)c1cc([N+](=O)[O-])cc([N+](=O)[O-])c1 [3,5-Dinitrobenzamide]
MIC [1, 8]: nfnB^+ 15.6 μg/ml | MIC [1, 9]: nfsA^+ 7.8 μg/ml | MIC [2, 10]: nfnB^− > 500 μg/ml | MIC [2, 11]: nfsA^− > 500 μg/ml | MIC [3, 12]: nfnB^+ 15.6 μg/ml | MIC [3, 13]: nfsA^+ 7.8 μg/ml | MIC (E. coli K12 wt): 250 µg/mL (≈ 1180 µM)

Nc1nc(O)ncc1F [5-fluorocytosine, 5-Fluorocytosine]
MIC ([1]; Escherichia coli): 625 µg/mL (≈ 4840 µM) | MIC ([2]; Escherichia coli, codA^− deletion strain): > 2500 µg/mL | MIC ([3]; Escherichia coli): 625 µg/mL (≈ 4840 µM) | MIC (E. coli K12 wt; [7]): > 2500 µg/mL
